assay: Reversal of multidrug resistance in human MCF7-DOX cells measured for 48 hrs by MTT assay; assay type: functional, cell-based

| SMILES | IC50 [µM] |
| --- | --- |
| C/C=C(\C)C(=O)O[C@H]1[C@H](OC(=O)/C(C)=C/C)[C@@H](OC(=O)/C(C)=C/C)[C@@H](O)[C@H](O)[C@@H]1OC(=O)/C(C)=C/C | 4 |
| COc1ccc(CCN(C)CCCC(C#N)(c2ccc(OC)c(OC)c2)C(C)C)cc1OC (stereo not given) [VERAPAMIL] | 2.1 |
| C/C=C(\C)C(=O)O[C@@H]1[C@H](O)[C@@H](OC(=O)/C(C)=C/C)[C@H](OC(=O)/C(C)=C/C)[C@@H](OC(=O)/C(C)=C/C)[C@H]1O | 6.5 |
| C/C=C(\C)C(=O)O[C@H]1[C@@H](OC(C)=O)[C@H](OC(C)=O)[C@H](OC(=O)/C(C)=C/C)[C@@H](OC(=O)/C(=C/C)CO)[C@@H]1OC(=O)/C(=C/C)CO | 3.4 |
| COc1cccc2c1C(=O)c1c(O)c3c(c(O)c1C2=O)C[C@@](O)(C(=O)CO)C[C@@H]3O[C@H]1C[C@H](N)[C@H](O)[C@H](C)O1 [DOXORUBICIN] | 22.4 |
